Reference: US9573939B2, “Substituted benzofuran compounds and methods of use thereof for the treatment of viral diseases” (priority 2011, dated 2017)

Experiments:
[1] = tested on: HCV replicon genotype 1a; assay: microbe, parasite or virus in culture; type: cell-based; conditions: Hepatitis C virus; HCV genotype 1a replicon cells; 96 hours incubation; replicon-encoded NS3/4A protein by ELISA; percentage of DMSO control
[2] = tested on: HCV replicon genotype 1b; assay: microbe, parasite or virus in culture; type: cell-based; conditions: Hepatitis C virus; HCV genotype 1b replicon cells; 96 hours incubation; replicon-encoded NS3/4A protein by ELISA; percentage of DMSO control

SMILES	IC50 [1] [nM]	IC50 [2] [nM]
CNC(=O)c1c(-c2ccc(F)cc2)oc2cc(N(C)S(C)(=O)=O)c(-c3ncc4ncn(-c5ccc(C#N)cc5)c4n3)cc12 [Compound 32]	> 1000	
CNC(=O)c1c(-c2ccc(F)cc2)oc2cc(N(C)S(C)(=O)=O)c(-c3ccc4ncn(-c5ccc(F)cc5)c4c3)cc12 [Compound 15]	338	20.2
CNC(=O)c1c(-c2ccc(F)cc2)oc2cc(N(C)S(C)(=O)=O)c(-c3ccc4cnn(-c5ccc(Cl)cc5)c4c3)cc12 [Compound 52]	6	6.9
CNC(=O)c1c(-c2ccc(F)cc2)oc2cc(N(C)S(C)(=O)=O)c(-c3ncc4ncn(-c5ccc(OC(F)(F)F)cc5)c4n3)cc12 [Compound 29, 2-(4-fluorophenyl)-N-methyl-6-(N-methylmethylsulfonamido)-5-(9-(4-(trifluoromethoxy)phenyl)-9H-purin-2-yl)benzofuran-3-carboxamide]	> 1000	
CNC(=O)c1c(-c2ccc(F)cc2)oc2cc(N(C)S(C)(=O)=O)c(-c3ccc4ncn(CCO)c4c3)cc12 [Compound 28]	755	75.7
CNC(=O)c1c(-c2ccc(F)cc2)oc2cc(N(C)S(C)(=O)=O)c(-c3ccc4c(c3)ncn4-c3cccnc3)cc12 [Compound 23]	24.1	
CNC(=O)c1c(-c2ccc(F)cc2)oc2cc(N(C)S(C)(=O)=O)c(-c3ccc4[nH]c(-c5ccccc5)cc4c3)cc12 [Compound 39]	> 1000	
CNC(=O)c1c(-c2ccc(F)cc2)oc2cc(N(C)S(C)(=O)=O)c(-c3ccc4c(c3)ncn4-c3ccccc3)cc12 [Compound 22]	25.3	2.9
